In PMC11190219 (2024):

Legend:
[1] = test system: FAM-c-KIT1-TAMRA (DNA, G4) GGGAGGGCGCTGGGAGGAGGG; assay: FRET melting; settings: K+ 60 mM (potassium cacodylate); pH 7.4, 2 µM compound, 0.2 µM DNA
[2] = test system: FAM-c-KIT2-TAMRA (DNA, G4) GGGCGGGCGCTAGGGAGGGG; assay: FRET melting; settings: K+ 60 mM (potassium cacodylate); pH 7.4, 2 µM compound, 0.2 µM DNA
[3] = test system: FAM-BCL-2-TAMRA (DNA, G4) GGGCGCGGGAGGAATTGGGCGGG; assay: FRET melting; settings: K+ 60 mM (potassium cacodylate); pH 7.4, 2 µM compound, 0.2 µM DNA
[4] = test system: c-KIT2 (DNA, G4) GGGCGGGCGCTAGGGAGGGG; assay: fluorescence titration (ligand emission); settings: K+ 60 mM (potassium cacodylate); pH 7.4, room temperature, 2.5 µM TBP2, Hill-1 fit, apparent
[5] = test system: c-KIT1 (DNA, G4) GGGAGGGCGCTGGGAGGAGGG; assay: fluorescence titration (ligand emission); settings: K+ 60 mM (potassium cacodylate); pH 7.4, room temperature, 2.5 µM TBP2, Hill-1 fit, apparent
[6] = test system: c-MYC22 (NMR) (DNA, G4) TGAGGGTGGGTAGGGTGGGTAA; assay: 1D 1H NMR titration; settings: K+ 100 mM; 25 mM Tris-HCl, pH 7.4, 100 µM DNA, 5-7.5% d6-DMSO
[7] = test system: BCL-2 (DNA, G4) GGGCGCGGGAGGAATTGGGCGGG; assay: fluorescence titration (ligand emission); settings: K+ 60 mM (potassium cacodylate); pH 7.4, room temperature, 2.5 µM TBP2, Hill-1 fit, apparent
[8] = test system: h-TELO (DNA, G4) TTGGGTTAGGGTTAGGGATTAGGGA; assay: fluorescence titration (ligand emission); settings: K+ 60 mM (potassium cacodylate); pH 7.4, room temperature, 2.5 µM TBP2, Hill-1 fit, apparent

| ΔTM [1] | ΔTM [2] | ΔTM [3] | Kd [4] | Kd [5] | binding [6] | Kd [7] | Kd [8] | Structure (SMILES) |
| --- | --- | --- | --- | --- | --- | --- | --- | --- |
| 0 °C | 0.5 ± 0 °C | 1 ± 0 °C | – | – | – | – | – | CN(C)CCCNC(=O)c1csc(NC(=O)c2csc(NC(=O)CCCc3cn(CCNC(=O)c4csc(NC(=O)c5csc(NC(=O)OC(C)(C)C)n5)n4)nn3)n2)n1 |
| 1.3 ± 0.1 °C | 4.1 ± 0.2 °C | 3.8 ± 0.2 °C | 9.2 µM | 9.5 µM | yes | 10.2 µM | 8.2 µM | CN(C)CCCNC(=O)c1csc(NC(=O)c2csc(NC(=O)CCCc3cn(CCNC(=O)c4csc(NC(=O)c5csc(N)n5)n4)nn3)n2)n1 |
